Experimental data: publication PMC13006724 (Clinical Pharmacology in Drug Development, 2026)

Conditions: human, in vivo, 400 mg
Protocol: Urine PK parameters included cumulative urinary excretion from time zero to time t (Ae0‐t), maximum rate of urinary excretion (Rmax), time of maximum rate of urinary excretion (TRmax), and renal clearance (Clr). PK analyses were performed using Phoenix WinNonlin version 8.0, which was validated by Syneos Health.

## COc1c(N2C[C@@H]3CCCN[C@@H]3C2)c(F)cc2c(=O)c(C(=O)O)cn(C3CC3)c12 [Moxifloxacin]
  AUC0-inf: 28327.2 (4616.5) h*ng/mL
